From patent publication US8889878B2, “Haloalky-substituted amides as insecticides and acaricides” (Bayer CropScience AG, priority 2009, dated 2014) come the findings set out here.

A short description of this series: logP by HPLC on reverse-phase column (EEC Directive 79/831 Annex V.A8). Format: physicochemical. The conditions noted are these: for chromatographic logP: reverse-phase C18 HPLC column, pH 2.7, HPLC. As for the experimental part: The logP values reported in the above Tables and Preparation Examples were determined according to EEC Directive 79/831 Annex V.A8 by HPLC (High Performance Liquid Chromatography) on a reverse-phase column (C18). Temperature 43° C.

The mark [1] stands for this setting: HPLC, C18 reverse phase, 43° C., acidic range pH 2.7, calibration with alkan-2-ones.
[2] abbreviates: HPLC-MS, HPLC on reverse-phase column.
[3] abbreviates: C18 reverse phase, 43° C., acidic range pH 2.7, calibration with alkan-2-ones.

For the molecule `CC(C)C(C#N)NC(=O)c1ccc(/C=C/C(=O)NC(c2cccc(C(F)(F)F)c2)C(F)(F)F)cc1Cl` (centres unmarked) [Ia-182], under “HPLC-MS”, the logP result is “HPLC-MS: logP = 3.68; mass”.

For the molecule `C#CC(C)NC(=O)c1cc2cc(C(=O)NC(c3cccc(C(F)(F)F)c3)C(F)(F)F)n(C)c2cc1Cl` (racemic) [Ic-31], the logP result under setting [1] is given as “HPLC-MS: logP = 3.73; mass”. Take `NC(=O)c1ccc2oc(C(=O)NC(c3cccc(C(F)(F)F)c3)C(F)(F)F)cc2c1` (centres unmarked) [Ic-6]: the logP entry under setting [1] is given as “HPLC-MS: logP = 2.69; mass”.

Take `COC(=O)C(C)NC(=O)c1ccc(C=CC(=O)NC(c2cccc(C(F)(F)F)c2)C(F)(F)F)cc1Cl` (mixture of isomers) [Ia-191]: the logP result (HPLC-MS) was “HPLC-MS: logP = 3.29; mass”. As for `N#Cc1cc(/C=C/C(=O)NC(c2cccc(C(F)(F)F)c2)C(F)(F)F)ccc1-n1cccn1` (racemic) [Ia-201], the logP entry (HPLC-MS) is listed as “HPLC-MS: logP = 3.5; mass”. `O=C(/C=C/c1ccc(C(=O)NC2CC2)c(C(F)(F)F)c1)NC(c1cc(Cl)c(Cl)c(Cl)c1)C(F)(F)F` (centres unmarked) [Ia-283]: under setting [2], the logP result is recorded as “HPLC-MS: logP = 4.1; mass”. As for `O=C(/C=C/c1ccc(-n2cncn2)c([N+](=O)[O-])c1)NC(c1cccc(C(F)(F)F)c1)C(F)(F)F` (centres unmarked) [Ia-9], the logP entry (HPLC-MS) is on record as “HPLC-MS: logP = 3.11; mass”. For `O=C(/C=C/c1ccc(CNc2cc(Cl)ccn2)cc1)NC(c1cccc(C(F)(F)F)c1)C(F)(F)F` (centres unmarked) [Ia-265], the logP entry under setting [2] is on record as “HPLC-MS: logP = 3.15; mass”.

As to `O=C(/C=C/c1ccc(C(=O)NCc2ncccn2)c(Br)c1)NC(c1cccc(C(F)(F)F)c1)C(F)(F)F` (centres unmarked) [Ia-133], the logP entry (HPLC-MS) is “HPLC-MS: logP = 2.93; mass”. Consider `O=C(/C=C/c1ccc(C(=O)NC2CC2)c(C(F)(F)F)c1)NC(c1cccc(F)c1)C(F)(F)F` (centres unmarked) [Ia-230], for which the lipophilicity (logP) result (HPLC-MS) is listed as “HPLC-MS: logP = 2.95; mass”. Take `N#Cc1cc(/C=C/C(=O)NC(c2cccc(C(F)(F)F)c2)C(F)(F)F)ccc1-n1cncn1` (centres unmarked) [Ia-10]: the logP result (HPLC-MS) is given as “HPLC-MS: logP = 2.99; mass”. The same measure, in the same setting: in the case of `Cc1cccnc1NC(=O)c1ccc(/C=C/C(=O)NC(c2cccc(C(F)(F)F)c2)C(F)(F)F)cc1C(F)(F)F` (centres unmarked) [Ia-255] it was “HPLC-MS: logP = 3.19; mass”. With `Cc1cc(Br)ccc1C(=O)NCc1ccccn1` [4-Bromo-2-methyl-N-(pyridin-2-ylmethyl)benzamide], the chromatographic logP under setting [3] was found to be 1.4.

The molecule `CCOC(=O)c1cc2ccc(C(=O)OC(C)(C)C)cc2o1` [6-tert-Butyl 2-ethyl 1-benzofuran-2,6-dicarboxylate] returned a chromatographic logP under setting [3] of 4.32. Still for that read-out and setting: in the case of `O=C(/C=C/c1ccc(C(=O)O)c(Br)c1)NC(c1cccc(C(F)(F)F)c1)C(F)(F)F` (centres unmarked) [2-Bromo-4-[(1E)-3-oxo-3-({2,2,2-trifluoro-1-[3-(trifluoromethyl)phenyl]ethyl}amino)prop-1-en-1-yl]benzoic acid] it was 3.15. Take `CC(NC(=O)c1ccc(/C=C/C(=O)NC(c2cccc(C(F)(F)F)c2)C(F)(F)F)cc1C(F)(F)F)C1(Cl)CC1` (centres unmarked) [Ia-171]: the logP entry (HPLC-MS) is listed as “HPLC-MS: logP = 4.18; mass”. Still for that read-out and setting: as for `N#Cc1cc(/C=C/C(=O)NC(c2cc(Cl)cc(Cl)c2)C(F)(F)F)ccc1-n1cncn1` (centres unmarked) [Ia-16], the entry is “HPLC-MS: logP = 3.33; mass”. Regarding `N#Cc1ccc2oc(C(=O)NC(c3ccc(Cl)cc3Cl)C(F)(F)F)cc2c1` (centres unmarked) [Ic-7], the logP result under setting [1] is given as “HPLC-MS: logP = 4.04; mass”. For `O=C(/C=C/c1ccc(C(=O)O)c(Cl)c1)NC(c1cccc(C(F)(F)F)c1)C(F)(F)F` (centres unmarked) [2-Chloro-4-[(1E)-3-oxo-3-({2,2,2-trifluoro-1-[3-(trifluoromethyl)phenyl]ethyl}amino)prop-1-en-1-yl]benzoic acid], the chromatographic logP under setting [3] was 3.1. Still for that read-out and setting: as for `NCc1ccc(/C=C/C(=O)NC(c2cccc(C(F)(F)F)c2)C(F)(F)F)cc1C(F)(F)F` (centres unmarked) [(2E)-3-[4-(Aminomethyl)-3-(trifluoromethyl)phenyl]-N-{2,2,2-trifluoro-1-[3-(trifluoro-methyl)phenyl]ethyl}acrylamide], the figure is 1.61. Take `O=C(C=Cc1ccc(C(=O)NCC=CCl)c(Cl)c1)NC(c1cccc(C(F)(F)F)c1)C(F)(F)F` (mixture of isomers) [Ia-193]: for the setting “HPLC-MS”, the logP entry is “HPLC-MS: logP = 3.58; mass”. Same read-out and setting: in the case of `O=C(/C=C/c1ccc(C(=O)Nc2ccccn2)c(C(F)(F)F)c1)NC(c1cccc(Cl)c1)C(F)(F)F` (centres unmarked) [Ia-246] it was “HPLC-MS: logP = 3.37; mass”. Same read-out and setting: as for `CC(=O)NCc1ccc(/C=C/C(=O)NC(c2cccc([S+](C)[O-])c2)C(F)(F)F)cc1C(F)(F)F` (centres unmarked) [Ia-245], the entry is “HPLC-MS: logP = 1.98; mass”. Under setting [3], `O=C(O)c1ccc2cc(C(=O)NC(c3cccc(C(F)(F)F)c3)C(F)(F)F)oc2c1` (centres unmarked) [2-({2,2,2-Trifluoro-1-[3-(trifluoromethyl)phenyl]ethyl}carbamoyl)-1-benzofuran-6-carboxylic acid] gave a chromatographic logP of 3.1. On to `O=C(/C=C/c1ccc(C(=O)NC2CC2)c(C(F)(F)F)c1)NC(c1cccc(F)c1)C(F)F` (centres unmarked) [Id-2], for which, under setting [1], the logP entry was “HPLC-MS: logP = 2.68; mass”. Molecule `CC(C)(C)OC(=O)c1ccc(C=O)c(O)c1` [tert-Butyl 4-formyl-3-hydroxybenzoate] registered a chromatographic logP under setting [3] of 3.11. `O=C(/C=C/c1ccc(C(=O)NCc2ccccn2)c(C(F)(F)F)c1)NC(c1ccc([N+](=O)[O-])cc1)C(F)(F)F` (centres unmarked) [Ia-34]: the logP result (HPLC-MS) is “HPLC-MS: logP = 2.93; mass”. Under setting [1], `ON=C(c1cc(F)cc(C(F)(F)F)c1)C(F)(F)F` (racemic) [2,2,2-Trifluoro-1-[3-fluoro-5-(trifluoromethyl)phenyl]ethanone oxime] had a logP of 3.21. The molecule further came in with a chromatographic logP under setting [3] of 3.17. Take `FC(F)(F)c1cc(Br)ccc1CNc1ccccn1` [N-[4-Bromo-2-(trifluoromethyl)benzyl]pyridin-2-amine]: the chromatographic logP under setting [3] turned out to be 1.57. For `Cc1cc(/C=C/C(=O)NC(c2cccc(C(F)(F)F)c2)C(F)(F)F)ccc1C(=O)O` (centres unmarked) [2-Methyl-4-[(1E)-3-oxo-3-({2,2,2-trifluoro-1-[3-(trifluoromethyl)phenyl]ethyl}amino)prop-1-en-1-yl]benzoic acid], under setting [3], the chromatographic logP was found to be 3.14.

Consider `Cn1nccc1CNC(=O)c1ccc(/C=C/C(=O)NC(c2cccc(C(F)(F)F)c2)C(F)(F)F)cc1Cl` (racemic) [Ia-189], for which the logP result (HPLC-MS) is “HPLC-MS: logP = 2.93; mass”. `O=C(O)/C=C/c1cc(C(F)(F)F)c(C(=O)NC2CC2)cn1` [(2E)-3-[5-(Cyclopropylcarbamoyl)-4-(trifluoromethyl)pyridin-2-yl]acrylic acid] came in with a chromatographic logP under setting [3] of 1.26. Same read-out and setting: as for `Nc1cccc(/C=C/C(=O)NC(c2cccc(C(F)(F)F)c2)C(F)(F)F)c1` (centres unmarked) [(2E)-3-(3-Aminophenyl)-N-{2,2,2-trifluoro-1-[3-(trifluoromethyl)phenyl]ethyl}acrylamide], the figure is 2.88. For the molecule `COC(=O)c1ccc(C(NC(=O)/C=C/c2ccc(C(=O)NC3CC3)c(C(F)(F)F)c2)C(F)(F)F)cc1C(F)(F)F` (centres unmarked) [Ia-81], the logP entry (HPLC-MS) is given as “HPLC-MS: logP = 3.09; mass”. Regarding `O=C(/C=C/c1ccc(C(=O)NCc2ccccc2)c(C(F)(F)F)c1)NC(c1ccncc1)C(F)(F)F` (centres unmarked) [Ib-1], the logP entry under setting [1] is recorded as “HPLC-MS: logP = 3.02 mass (m/z):”. Same read-out and setting: in the case of `O=C(NC(c1cccc(C(F)(F)F)c1)C(F)(F)F)c1cc2cc(S(=O)(=O)C(F)(F)F)ccc2[nH]1` (centres unmarked) [Ic-17] it was “HPLC-MS: logP = 4.19; mass”. For the molecule `O=C(/C=C/c1ccc(C(=O)NC2CC2)cc1Cl)NC(c1cccc(Cl)c1)C(F)(F)F` (centres unmarked) [Ia-234], the logP result (HPLC-MS) is on record as “HPLC-MS: logP = 3.3; mass”.
